From patent US20210246886A1, “Fluorosulfones” (3M INNOVATIVE PROPERTIES COMPANY, priority 2018, published 2021)

What was measured:
[1] = system: male Sprague Dawley rats; assay: Inhalation toxicity in rats, single 4-hour whole body exposure; type: in vivo, rat
Description: The inhalation toxicity potential of Example 3 was evaluated in male Sprague Dawley rats after a single 4-hour whole body exposure at atmospheric concentrations of 10,000 ppm (v/v). The test material (purity 98.84%) was administered as received at an appropriate volume to a 40-L test chamber containing 3 rats. The test material vaporized upon addition to the chamber. The air within the chamber was regenerated at appropriate intervals to maintain an 18% oxygen concentration. Three control animals were placed in another chamber filled with ambient air. The day of exposure was designated Day 0. Clinical observations were recorded during the exposure period and for 14 days after exposure. Body weights were recorded prior to exposure (Day 0), on Day 1, Day 2, and 14 days after exposure for both the test material-treated and control animals.

[2] = Stability as foam additive in polyol/amine catalyst/cyclopentane mixture (fluoride ion release); type: physicochemical; settings: for change of fluoride levels over time (reaction with polyol/amine catalyst mixture): over 48 hours at room temperature; for [F—] at 48 hours / [F—] at time 0: polyol/amine catalyst/foam additive/cyclopentane mixture; for [F—] at 48 hours: aged at room temperature; for [F—] at time 0: room temperature
Description: The stability of Example 3 (perfluorodiethylsulfone) was measured in a standard polyol/amine catalyst/foam blowing agent mixture commonly used in making polyurethane foams. The stability was compared to CE9 (PF-5060) and CE10 (FA-188), both of which are available from 3M Company, St. Paul, Minn., US. Stability was determined by measuring the increase in fluoride ion levels over time after mixing all the components at room temperature. An increase in fluoride ion levels is a measure of the extent to which the fluorinated foam additive is reacting with the polyol/amine catalyst mixture to release fluoride ion. Fluoride ion measurements were made using a ThermoScientific ORION DUAL STAR pH/ISE channel meter and VWR 14002-788 F Fluoride specific electrode. The electrode was calibrated using fluoride standards of 1, 2, 10, and 100 ppm fluoride ion concentration in aqueous TISAB II (Total Ionic Strength Adjustment Buffer) buffer solution.
The Polyol/Amine Catalyst/Blowing Agent/Foam Additive sample mixtures were prepared by mixing ELASTAPOR P 17655R Resin (a polyol/amine catalyst blend obtained from BASF, Ludwigshafen, Germany), cyclopentane (a common foam blowing agent), and Example 3, CE9, or CE10 as a foam additive. Using a SARTORIUS A200S balance, the cyclopentane/foam additive mixtures were made first by mixing 25.5 grams of cyclopentane with 2.3 grams of foam additive. Then 43.1 grams of the ELASTAPOR polyol containing the amine catalyst was transferred to a wide mouth 4 oz glass jar and 7 g of the cyclopentane/foam additive mixture was added and shaken.
After the sample mixtures were thoroughly shaken and mixed, an aliquot was removed and an initial fluoride concentration was determined at time 0 hr. Analytical samples were prepared by diluting 1 g of the sample mixture with 1 g of isopropyl alcohol and 0.5 mL of 1N sulfuric acid in a polypropylene centrifuge tube and mixing thoroughly. The sample was further diluted with 1 g of water and mixed again. From this mixture a 1 mL aliquot was taken and mixed with 1 mL of TISAB II solution in a fresh polypropylene centrifuge tube and mixed thoroughly prior to fluoride ion measurement. An average of 3 independent fluoride measurements were used to determine the fluoride concentration of each sample using the fluoride specific electrode and meter described above. Similar measurements were taken every 24 hours. The results are summarized in Table 8 below after 0 and 48 hours.

[3] = Hydrolytic stability: free fluoride in water phase after aging with deionized water; type: physicochemical
Description: Duplicate samples of Example 3 and CE1 were tested for hydrolytic stability at 150° C. by placing 10 grams of test material along with 10 grams deionized water in a clean, 40 mL Monel pressure vessel, which was sealed and placed in a convection oven set at 150° C. for 24 hours. After aging, the fluoride concentrations were determined by mixing 1 mL of the water phase from each sample with 1 mL of TISAB II (Total Ionic Strength Buffer) buffer solution. Fluoride ion concentrations were then measured using an ORION EA 940 meter with an ORION 9609BNWB Fluoride-Ion Specific Electrode (ISE) (Thermo Fisher Scientific, Minneapolis, Minn., US). ORION IONPLUS Fluoride standards (1, 2, 10 and 100 ppm Fluoride) were used for the calibration of the meter.
The hydrolytic stability values of Example 3 and CE1 are reported as average parts per million by weight (ppmw) of free fluoride in water in Table 4. Higher levels of free fluoride ion concentration correspond to reduced stability.

[4] = Thermal stability: fluoride ion after aging neat in Monel pressure vessel; type: physicochemical
Description: The thermal stability of Example 3 and CE1 was determined by placing duplicate 10-gram samples in clean, 40 mL Monel pressure vessels and sealing tightly. The pressure vessels were then placed in a convection oven set at 100° C. for 24 hours. After aging, each sample was mixed with a known weight of ultrapure (18.2 MΩ) water, agitated in a mechanical shaker at high speed for 15 minutes and finally centrifuged to separate the two phases. Fluoride ion concentrations were subsequently measured in the water phase as previously described. This was then followed by another experiment at 150° C. using the same method.

| Compound | mortality and clinical observations ([1]; 10,000 ppm (v/v), during 4-hour exposure and throughout 14-day study) | body weight, condition and gross necropsy ([1]; 10,000 ppm (v/v), single 4-hour exposure, 14-day study) | approximate inhalation 4-hour LC50 ([1]; male Sprague Dawley rats, single 4-hour whole body exposure at 10,000 ppm (v/v), 14 days observation) | change of fluoride levels over time (reaction with polyol/amine catalyst mixture) [2] | [F—] at 48 hours [2] [ppm] | [F—] at time 0 [2] [ppm] | Average F concentration after 24 hours at 150° C. with DI H2O ([3]; 10 g sample + 10 g deionized water, Monel vessel, 150° C., 24 hours) [ppmw] | Average F concentration at room temperature ([3]; hydrolytic stability test, before aging) [ppmw] | Average F concentration after 24 hours at 100° C. ([4]; neat, no water, Monel vessel) [ppmw] | Average F concentration after 24 hours at 150° C. ([4]; neat, no water, Monel vessel) [ppmw] | Average F concentration at room temperature ([4]; thermal stability test, before aging) [ppmw] |
| --- | --- | --- | --- | --- | --- | --- | --- | --- | --- | --- | --- |
| O=S(=O)(C(F)(F)C(F)(F)F)C(F)(F)C(F)(F)F [Example 3, Perfluorodiethylsulfone] | no mortality or abnormal clinical observations | gained weight and were normal | greater than 10,000 ppm | essentially unchanged | 10.67 | 11.74 | 11.55 | <0.05 | <0.05 | 0.36 | <0.05 |
| FC(F)(F)C(F)(F)C(F)(F)C(F)(F)C(F)(F)C(F)(F)F [CE9] | – | – | – | essentially unchanged | 0.71 | 0.83 | – | – | – | – | – |
